In the assay the target is T1, human PTH1 receptor (Homo sapiens, UniProt Q03431).
T1 sequence (Q03431 27-593): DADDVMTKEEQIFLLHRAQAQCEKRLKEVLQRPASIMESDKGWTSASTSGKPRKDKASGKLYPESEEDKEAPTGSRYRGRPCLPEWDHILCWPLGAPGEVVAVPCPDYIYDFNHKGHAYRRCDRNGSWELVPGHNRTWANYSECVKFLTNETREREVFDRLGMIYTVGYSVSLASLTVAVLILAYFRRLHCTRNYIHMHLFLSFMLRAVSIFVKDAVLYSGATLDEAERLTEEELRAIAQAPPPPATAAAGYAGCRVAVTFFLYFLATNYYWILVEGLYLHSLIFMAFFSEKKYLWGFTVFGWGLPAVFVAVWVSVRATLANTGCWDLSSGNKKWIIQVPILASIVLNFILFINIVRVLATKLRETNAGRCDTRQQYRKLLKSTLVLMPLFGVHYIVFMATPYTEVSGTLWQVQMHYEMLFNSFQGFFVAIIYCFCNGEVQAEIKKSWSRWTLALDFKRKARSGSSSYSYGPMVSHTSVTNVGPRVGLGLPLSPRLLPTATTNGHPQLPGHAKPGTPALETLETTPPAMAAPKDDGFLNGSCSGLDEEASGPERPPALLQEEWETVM
The assay can be described thus: In vitro cAMP signal activity in HKRK-B7 cells (LLC-PK1 cells overexpressing the human PTH1 receptor). The note with it: HKRK-B7 cells; compound at 1×10^−3 M; cAMP produced as percentage of that produced by hPTH(1-34) at 100 nM. The format is cell-based.
With `Cc1cc(NC(=O)[C@@H](N)C(C)C)cc(C)c1/C=C/S(=O)(=O)N1CCC2(CC1)N=C(C1CCCCC1)NC2=O` [Compound 735, (S)-2-Amino-N-{4-[(E)-2-(2-cyclohexyl-4-oxo-1,3,8-triaza-spiro[4.5]dec-1-ene-8-sulfonyl)-vinyl]-3,5-dimethyl-phenyl}-3-methyl-butylamide], the “cAMP production activity (%)” value amounted to 32%.

As to `Cc1cc(C(=O)N(C)C)ccc1-c1ccc(S(=O)(=O)N2CCC3(CC2)N=C(c2cccc(C(F)(F)F)c2)NC3=O)s1` [Compound 331, 3,N,N-trimethyl-4-{5-[4-oxo-2-(3-trifluoromethyl-phenyl)-1,3,8-triaza-spiro[4.5]dec-1-ene-8-sulfonyl]-thiophen-2-yl}-benzamide], the “cAMP production activity (%)” value is 55%.

Regarding `O=C(CCCOCc1ccccc1)N1CCCC(C2=NC3(CCN(S(=O)(=O)CCc4cccc5ccccc45)CC3)C(=O)N2)C1` (stereo not shown) [Compound 436, 2-[1-(4-benzyloxy-butyryl)-piperidin-3-yl]-8-(2-naphthalen-1-yl-ethanesulfonyl)-1,3,8-triaza-spiro[4.5]dec-1-en-4-one], the “cAMP production activity (%)” value is reported as 28%. The same measure for `COC(=O)CNc1ccc(/C=C/S(=O)(=O)N2CCC3(CC2)N=C(C2CCCCC2)NC3=O)c(C(F)(F)F)c1` [Compound 493, {4-[(E)-2-(2-cyclohexyl-4-oxo-1,3,8-triaza-spiro[4.5]dec-1-ene-8-sulfonyl)-vinyl]-3-trifluoromethyl-phenylamino}-acetic acid methyl ester]: 50%; for `CC(=O)Nc1cccc(C)c1/C=C/S(=O)(=O)N1CCC2(CC1)N=C(C1CCCCC1)NC2=O` [Compound 190, N-{2-[(E)-2-(2-cyclohexyl-4-oxo-1,3,8-triaza-spiro[4.5]dec-1-ene-8-sulfonyl)-vinyl]-3-methyl-phenyl}-acetamide]: 61%.

`CC(=O)N(CCOCCF)c1cc(C)c(/C=C/S(=O)(=O)N2CCC3(CC2)N=C(C2CCC(CCC(F)(F)F)CC2)NC3=O)c(C)c1` (stereo not shown) [Compound 551, N-[3,5-dimethyl-4-((E)-2-{4-oxo-2-[4-(3,3,3-trifluoro-propyl)-cyclohexyl]-1,3,8-triaza-spiro[4.5]dec-1-ene-8-sulfonyl}-vinyl)-phenyl]-N-[2-(2-fluoro-ethoxy)-ethyl]-acetamide]: the “cAMP production activity (%)” value was 92%. With `Cc1cc(C(=O)N(C)C)ccc1CCS(=O)(=O)N1CCC2(CC1)N=C(C(C)(C)Oc1ccc(Cl)cc1Cl)NC2=O` [Compound 175, 4-(2-{2-[1-(2,4-Dichloro-phenoxy)-1-methyl-ethyl]-4-oxo-1,3,8-triaza-spiro[4.5]dec-1-ene-8-sulfonyl}-ethyl)-3,N,N-trimethyl-benzamide], the “cAMP production activity (%)” value was found to be 73%. In the case of `CC(C)(C)OC(=O)N1CCCC(C2=NC3(CCN(S(=O)(=O)c4cccc(Cl)c4)CC3)C(=O)N2)C1` (stereo not shown) [Compound 18, 3-[8-(3-chloro-benzenesulfonyl)-4-oxo-1,3,8-triaza-spiro[4.5]dec-1-en-2-yl]-piperidine-1-carboxylic acid tert-butyl ester], the “cAMP production activity (%)” value was 44%. The same measure for `Cc1cc(C(=O)N2CCC(C)(O)CC2)cc(C)c1CCS(=O)(=O)N1CCC2(CC1)N=C(c1ccc(F)c(C(F)(F)F)c1)NC2=O` [Compound 803, 2-(4-fluoro-3-trifluoromethyl-phenyl)-8-{2-[4-(4-hydroxy-4-methyl-piperidine-1-carbonyl)-2,6-dimethyl-phenyl]-ethanesulfonyl}-1,3,8-triaza-spiro[4.5]dec-1-en-4-one]: 103%; for `Cc1cc(N(C)C(N)=O)cc(C)c1CCS(=O)(=O)N1CCC2(CC1)N=C(CCCCCCCCCCCCCC(N)=O)NC2=O` [Compound 1176, 14-(8-{2-[2,6-dimethyl-4-(1-methyl-ureido)-phenyl]-ethanesulfonyl}-4-oxo-1,3,8-triaza-spiro[4.5]dec-1-en-2-yl)-tetradecanoic acid amide]: 82%. The same measure for `COc1c(N(C)C(N)=O)cc(C)c(CCS(=O)(=O)N2CCC3(CC2)N=C([C@H]2CC[C@H](C)CC2)NC3=O)c1C` [Compound 684, 1-(2-methoxy-3,5-dimethyl-4-{2-[2-(4-methyl-cyclohexyl)-4-oxo-1,3,8-triaza-spiro[4.5]dec-1-ene-8-sulfonyl]-ethyl}-phenyl)-1-methyl-urea]: 101%; for `O=C1NC(C2CCCCC2)=NC12CCCN(S(=O)(=O)c1cccc(Cl)c1)CC2` (stereo not shown) [Compound 70, 8-(3-Chloro-benzenesulfonyl)-2-cyclohexyl-1,3,8-triaza-spiro[4.6]undec-1-en-4-one]: 31%; for `Cc1cc(C(=O)N2CC(F)(F)C(F)(F)C2)ccc1/C=C/S(=O)(=O)N1CCC2(CC1)N=C(C1CCCCC1)NC2=O` [Compound 203, 2-cyclohexyl-8-{(E)-2-[2-methyl-4-(3,3,4,4-tetrafluoro-pyrrolidine-1-carbonyl)-phenyl]-ethenesulfonyl}-1,3,8-triaza-spiro[4.5]dec-1-en-4-one]: 25%. As to `Cc1cc(C(=O)N2CCC(OCCN(C)C)CC2)cc(C)c1/C=C/S(=O)(=O)N1CCC2(CC1)N=C(c1cccc(OC(F)(F)F)c1)NC2=O` [Compound 407, 8-((E)-2-{4-[4-(2-dimethylamino-ethoxy)-piperidine-1-carbonyl]-2,6-dimethyl-phenyl}-ethenesulfonyl)-2-(3-trifluoromethoxy-phenyl)-1,3,8-triaza-spiro[4.5]dec-1-en-4-one], the “cAMP production activity (%)” value is given as 49%. In the case of `CC(C)(C)C1=NC2(CCN(S(=O)(=O)CCc3cccc4ccccc34)CC2)C(=O)N1` [Compound 36, 2-tert-butyl-8-(2-naphthalen-1-yl-ethanesulfonyl)-1,3,8-triaza-spiro[4.5]dec-1-en-4-one], the “cAMP production activity (%)” value turned out to be 3.5%. The same measure for `CC[C@H]1CC[C@H](C2=NC3(CCN(S(=O)(=O)CCc4ccc(NC5=NCCS5)cc4C)CC3)C(=O)N2)CC1` [Compound 1295, 8-{2-[4-(4,5-Dihydro-thiazol-2-ylamino)-2-methyl-phenyl]-ethanesulfonyl}-2-(4-ethyl-cyclohexyl)-1,3,8-triaza-spiro[4.5]dec-1-en-4-one]: 73%. The same measure for `Cc1cc(S(=O)(=O)NCCN2CCOCC2)ccc1/C=C/S(=O)(=O)N1CCC2(CC1)N=C(c1cccc(C(F)(F)F)c1)NC2=O` [Compound 218, 3-methyl-N-(2-morpholin-4-yl-ethyl)-4-{(E)-2-[4-oxo-2-(3-trifluoromethyl-phenyl)-1,3,8-triaza-spiro[4.5]dec-1-ene-8-sulfonyl]-vinyl}-benzenesulfonamide]: 72%; for `Cc1cc2c(CCS(=O)(=O)N3CCC4(CC3)N=C(C3CCCCC3)NC4=O)cccc2[nH]1` [Compound 745, 2-Cyclohexyl-8-[2-(2-methyl-1H-indol-4-yl)-ethanesulfonyl]-1,3,8-triaza-spiro[4.5]dec-1-en-4-one]: 67%; for `O=C1NC(C2CCCCC2)=NC12CCN(S(=O)(=O)/C=C/c1cccc3cccnc13)CC2` [Compound 633, 2-Cyclohexyl-8-((E)-2-quinolin-8-yl-ethenesulfonyl)-1,3,8-triaza-spiro[4.5]dec-1-en-4-one]: 37%. Consider `Cc1cc2ccc1CCS(=O)(=O)N1CCC3(CC1)N=C(NC3=O)c1cc(cc(C(F)(F)F)c1)OCC/C=C/COCCNC2=O` [Compound 1426], for which the “cAMP production activity (%)” value came out at 5.4%. Under `O=C1NC(c2ccc(F)c(C(F)(F)F)c2)=NC12CCN(S(=O)(=O)/C=C/c1cccc3c1ccn3C[C@H](O)CO)CC2` [Compound 643, 8-{(E)-2-[1-((S)-2,3-dihydroxy-propyl)-1H-indol-4-yl]-ethenesulfonyl}-2-(4-fluoro-3-trifluoromethyl-phenyl)-1,3,8-triaza-spiro[4.5]dec-1-en-4-one] stands 94%; under `Cc1cc2ccc1CCS(=O)(=O)N1CCC3(CC1)N=C(NC3=O)c1cc(cc(C(F)(F)F)c1)OCC[C@H](O)[C@H](O)COCCN(C)C2=O` [Compound 1439], 18%; under `Cc1cc(C(=O)N2CCN(C)CC2)cc(C)c1CCS(=O)(=O)N1CCC2(CC1)N=C(C1CCC(CCC(F)(F)F)CC1)NC2=O` (stereo not shown) [Compound 995, 8-{2-[2,6-Dimethyl-4-(4-methyl-piperazine-1-carbonyl)-phenyl]-ethanesulfonyl}-2-[4-(3,3,3-trifluoro-propyl)-cyclohexyl]-1,3,8-triaza-spiro[4.5]dec-1-en-4-one], 98%. The same measure for `Cc1cc(N2CCN(CCO)C2=O)ccc1CCS(=O)(=O)N1CCC2(CC1)N=C(c1cccc(C(F)(F)F)c1)NC2=O` [Compound 674, 8-(2-{4-[3-(2-Hydroxy-ethyl)-2-oxo-imidazolidin-1-yl]-2-methyl-phenyl}-ethanesulfonyl)-2-(3-trifluoromethyl-phenyl)-1,3,8-triaza-spiro[4.5]dec-1-en-4-one]: 68%; for `Cc1cc(N(C)C(N)=O)cc(C)c1/C=C/S(=O)(=O)N1CCC2(CC1)N=C(CCCCCCCCCCCO)NC2=O` [Compound 1307, 1-(4-{(E)-2-[2-(11-hydroxy-undecyl)-4-oxo-1,3,8-triaza-spiro[4.5]dec-1-ene-8-sulfonyl]-vinyl}-3,5-dimethyl-phenyl)-1-methyl-urea]: 116%.

Source of the values: patent publication US9169254B2, “Spiroimidazolone derivative” (Chugai Seiyaku Kabushiki Kaisha, priority 2009, dated 2015).
